Data taken from US20260225889A1, “Spherical nanoparticles for improved composite materials” (Stichting Radboud universitair medisch centrum, priority 2023, published 2026).

Columns and labels:
[1] = system: intracellular S. aureus-mCherry; format: cell-based, S. aureus strain RN4220; settings: 24 h; for survival of intracellular S. aureus: systemically delivered: dissolved zinc (300 μM), dissolved vancomycin (5.5 μM), versus 'no treatment'
Procedure: S. aureus strain RN4220 expressing mCherry fluorescent protein (S. aureus-mCherry) was used for in vitro studies. Bacterial inoculums were prepared by culturing S. aureus-mCherry in tryptic soy broth (TSB; BD Difco, Leeuwarden, the Netherlands) supplemented with 10 μg/mL chloramphenicol (Merck) shaking at 120 rpm and 37° C. to the mid logarithmic growth phase. S. aureus-mCherry bacteria were pelleted by centrifugation (3000 g, 10 min), re-suspended in 1 mL of NaCl and 0.25 mL human serum (H1 serum, Bio Whittaker, MD, USA) and incubated for 20 min. The inoculum was adjusted to 10^8 CFU/mL with RPMI based on the optical density value at wavelength 620 (OD620). The human THP-1 macrophages were seeded as described above in 96-well plates at a concentration of 100.000 cells/cm^2. After 48 h, the media was replaced by 1 μL of the bacterial inoculum (bacteria to cell ratio of 1:1) and incubated for 45 min at 37° C. and 5% CO2. Afterwards, the human THP-1 macrophages were washed three times with 50 μL PBS and one time with 200 μL PBS to prevent carry-over of planktonic S. aureus-mCherry. RPMI media supplemented with 5 μg/mL gentamycin (Sigma-Aldrich) was added to control the extracellular growth of S. aureus-mCherry.
The human THP-1 macrophages were allowed to phagocytose S. aureus-mCherry as described above. To investigate the intracellular killing efficiency of the synthesized NPs, RPMI media with 5 μg/ml gentamycin was enriched with 50 μg/ml of synthesized NPs for 24 h. Moreover, to assess the synergistic effect of zinc and vancomycin, a combination of 20 mol % ZnHA and VGelA NPs was added to the co-culture in different concentrations. After 24 h, the human THP-1 macrophages were lysed with 100 μl of 0.025% TritonX-100 to determine the amount of intracellular S. aureus-mCherry number. After lysis, the solution was serial diluted in PBS and spot-plated on agar plates. […] Additionally, the viability of the THP-1 macrophages is assessed using a LIVE/DEAD cell viability assay (Invitrogen, Waltham, MA, USA) as mentioned above. […]

human THP-1 macrophages [2] = experiment: LIVE/DEAD cell viability assay of THP-1 macrophages with phagocytosed S. aureus; format: cell-based; settings: systemic zinc 75 μM, 24 h
Procedure: Additionally, a LIVE/DEAD cell viability assay (Invitrogen, Waltham, MA, USA) was used according to the manufacturer's instructions to visualize the cells after 24 h of phagocytosis. In brief, 100 μL of 4 μM Ethidium homodimer 1 and 2 μM calcein AM solution in PBS was added to the human THP-1 macrophages and incubated for 30 min before visualization using a Leica SP8-X DLS Lightsheet microscope (Leica Microsystems, Wetzlar, Germany). Human THP-1 macrophages without phagocytosed S. aureus-mCherry served as negative control. The amount of living cells were quantified by counting using three LIVE/DEAD images and compared between macrophages with and without phagocytosed S. aureus.
The human THP-1 macrophages were allowed to phagocytose S. aureus-mCherry as described above. To investigate the intracellular killing efficiency of the synthesized NPs, RPMI media with 5 μg/ml gentamycin was enriched with 50 μg/ml of synthesized NPs for 24 h. Moreover, to assess the synergistic effect of zinc and vancomycin, a combination of 20 mol % ZnHA and VGelA NPs was added to the co-culture in different concentrations. […] Additionally, the viability of the THP-1 macrophages is assessed using a LIVE/DEAD cell viability assay (Invitrogen, Waltham, MA, USA) as mentioned above. […]

human THP-1 macrophages [3] = experiment: Internalization of labelled nanoparticles in human THP-1 macrophages (confocal overlay); format: cell-based
Procedure: For cell culture experiments, human THP-1 macrophages (American Type Culture Collection, Manassas, USA) were maintained in Roswell Park Memorial Institute (RPMI) 1640 media supplemented with 2 mM Glutamine (GIBCO, New York, NY, USA) and 100/fetal bovine serum (FBS, Sigma-Aldrich). The human THP-1 macrophages were sub-cultured once a week and incubated at 37° C. in a humidified atmosphere containing 5% CO2. The human THP-1 macrophages were passaged by centrifugation when reaching a confluency of 10^6 cells/mL. In the following experiments, cell seeding is performed with media enriched with 50 ng/ml phorbol 12-myristate 13-acetate (PMA; Sigma-Aldrich) to allow for adherence of cells over 48 h.
Human THP-1 macrophages were cultured as described above and seeded with a density of 200.000 cells/cm^2 in an 8-well μ-slide (ibidi, Gräfelfing, Germany) for 48 h. Labeled NPs were diluted in RPMI cell culture medium to reach a final concentration of 50 μg/mL. Afterwards 200 μL particle suspension was added to the human THP-1 macrophages. […] The image analysis software Fiji was used for the reconstruction of images, and the plugin “co-localization finder” was used to visualize the overlaying signal in white and quantify the fluorescence overlay of different channels.

Row | Compound | survival of intracellular S. aureus [1] | amount of alive cells (LIVE/DEAD images) (human THP-1 macrophages [2]) | effect on intracellular S. aureus survival ([1]; systemic zinc 75 μM) | internalization by human THP-1 macrophages (human THP-1 macrophages [3]; dissolved, no NPs) | Overlay (%) (human THP-1 macrophages [3]; fluorescently labelled NPs 50 μg/mL in THP-1 macrophages, confocal co-localization)
1 | CN[C@H](CC(C)C)C(=O)N[C@H]1C(=O)N[C@@H](CC(N)=O)C(=O)N[C@H]2C(=O)N[C@H]3C(=O)N[C@H](C(=O)N[C@H](C(=O)O)c4cc(O)cc(O)c4-c4cc3ccc4O)[C@H](O)c3ccc(c(Cl)c3)Oc3cc2cc(c3O[C@@H]2O[C@H](CO)[C@@H](O)[C@H](O)[C@H]2O[C@H]2C[C@](C)(N)[C@H](O)[C@H](C)O2)Oc2ccc(cc2Cl)[C@H]1O [vancomycin] | did not cause a significant reduction |  |  |  | 
2 | [Zn] [zinc] | did not cause a significant reduction | visually decreased the amount of alive cells | reduction of intracellular S. aureus survival |  | 
3 | FITC-vancomycin |  |  |  | inability | 0
